We go through eleven compounds from patent US9593122B2, “Substituted pyrazolylpyrazole derivative and use of same as herbicide” (KYOYU AGRI CO., LTD., priority 2013, dated 2017).

Structures are written as SMILES.

Assay in all cases: Paddy herbicidal activity test
Assay type in all cases: in vivo

The test system of one assay is Scirpus juncoides. The conditions noted are these: irrigated paddy pot, 30 days. The protocol:
(§1) Rice paddy soil was filled into a 1/10000 are pot followed by the addition of suitable amounts of water and chemical fertilizer, kneading, seeding with Echinochloa crus-galli, Monochoria vaginalis and Scirpus juncoides and maintaining in an irrigated state at a water depth of 3 cm.
(§2) Wettable powder of Target Compound (I) shown in Table 1 prepared in compliance with the preparation examples were diluted with a suitable amount of water, rice plants in the 2.0 leaf stage were transplanted during 3.5 leaf stage of Echinochloa crus-galli, and treated by dropping in chemical in the prescribed amount per are using a pipette.
(§3) After treating for 30 days in a glass greenhouse at an average atmospheric temperature of 30° C., the herbicidal efficacy thereof was investigated.
(§4) Evaluation of herbicidal efficacy was carried out by comparing growth inhibition rate (%) with an untreated group, while evaluation of phytotoxicity was carried out by comparing growth inhibition rate (%) with the state of a complete eradication group, and were evaluated at 11 levels indicated below.

Another assay relates to Echinochloa crus-galli. The settings on record: irrigated paddy pot, treated at 3.5 leaf stage of Echinochloa crus-galli, 30 days. The protocol:
as §1, §2, §3, §4

The subject of the next assay is Monochoria vaginalis. The conditions noted are these: irrigated paddy pot, 30 days. How it is done: as §1, §2, §3, §4

Take `N#Cc1cnn(-c2nn3c(c2Cl)CCCC3)c1NCC(Cl)=CCl` (mixture of isomers) [Compound 11]: the “Scirpus juncoides herbicidal efficacy (growth inhibition level)” value with Scirpus juncoides (1g a.i./10a) is recorded as 7 (7: 70% to less than 80%); in the assay on Scirpus juncoides (5g a.i./10a), 8 (8: 80% to less than 90%). The “Echinochloa crus-galli herbicidal efficacy (growth inhibition level)” value in the assay with Echinochloa crus-galli (1g a.i./10a) is 8 (8: 80% to less than 90%); in the assay with Echinochloa crus-galli (5g a.i./10a), 9 (9: 90% to less than 100%). Also, the “Monochoria vaginalis herbicidal efficacy (growth inhibition level)” value in the assay with Monochoria vaginalis (1g a.i./10a) was 8 (8: 80% to less than 90%); in the assay on Monochoria vaginalis (5g a.i./10a), 9 (9: 90% to less than 100%).
Turning to `N#Cc1cnn(-c2nn3c(c2Cl)CCCC3)c1N(CC(Cl)=CCl)C(=O)C(F)(F)F` (mixture of isomers) [Compound 23], the entries for the “Scirpus juncoides herbicidal efficacy (growth inhibition level)” value in the assay on Scirpus juncoides (1g a.i./10a) and with Scirpus juncoides (5g a.i./10a) were 7 (7: 70% to less than 80%) and 8 (8: 80% to less than 90%), respectively. Besides, the “Echinochloa crus-galli herbicidal efficacy (growth inhibition level)” value in the assay with Echinochloa crus-galli (1g a.i./10a) was 8 (8: 80% to less than 90%); with Echinochloa crus-galli (5g a.i./10a) it was 9 (9: 90% to less than 100%). Moreover, the “Monochoria vaginalis herbicidal efficacy (growth inhibition level)” value with Monochoria vaginalis (1g a.i./10a) is on record as 8 (8: 80% to less than 90%); in the assay on Monochoria vaginalis (5g a.i./10a) it was 9 (9: 90% to less than 100%).
In the case of `CC=CCCN(C(=O)C(F)(F)F)c1c(C#N)cnn1-c1nn2c(c1Cl)CCCC2` (mixture of isomers) [Compound 26], the “Scirpus juncoides herbicidal efficacy (growth inhibition level)” value with Scirpus juncoides (1g a.i./10a) is given as 7 (7: 70% to less than 80%); with Scirpus juncoides (5g a.i./10a) it was 8 (8: 80% to less than 90%). For the same compound, the “Echinochloa crus-galli herbicidal efficacy (growth inhibition level)” value in the assay on Echinochloa crus-galli (1g a.i./10a) and in the assay with Echinochloa crus-galli (5g a.i./10a) was 9 (9: 90% to less than 100%) throughout. Also, the “Monochoria vaginalis herbicidal efficacy (growth inhibition level)” value in the assay with Monochoria vaginalis (1g a.i./10a) is 8 (8: 80% to less than 90%); with Monochoria vaginalis (5g a.i./10a) it was 9 (9: 90% to less than 100%).
As to `CC=CCNc1c([N+](=O)[O-])cnn1-c1nn2c(c1Cl)CCCC2` (mixture of isomers) [Compound 34], the “Scirpus juncoides herbicidal efficacy (growth inhibition level)” value in the assay on Scirpus juncoides (1g a.i./10a) and in the assay on Scirpus juncoides (5g a.i./10a) was 8 (8: 80% to less than 90%) in each case. Also, the “Echinochloa crus-galli herbicidal efficacy (growth inhibition level)” value in the assay with Echinochloa crus-galli (1g a.i./10a) and in the assay on Echinochloa crus-galli (5g a.i./10a) was 9 (9: 90% to less than 100%) in each case. Moreover, the “Monochoria vaginalis herbicidal efficacy (growth inhibition level)” value in the assay with Monochoria vaginalis (1g a.i./10a) and in the assay on Monochoria vaginalis (5g a.i./10a) was 9 (9: 90% to less than 100%) in each case.
With `CC=CCN(C(=O)C(F)(F)F)c1c([N+](=O)[O-])cnn1-c1nn2c(c1Cl)CCCC2` (mixture of isomers) [Compound 40], the “Scirpus juncoides herbicidal efficacy (growth inhibition level)” value with Scirpus juncoides (1g a.i./10a) is on record as 7 (7: 70% to less than 80%); with Scirpus juncoides (5g a.i./10a), 8 (8: 80% to less than 90%). Further, the “Echinochloa crus-galli herbicidal efficacy (growth inhibition level)” value in the assay with Echinochloa crus-galli (1g a.i./10a) is recorded as 8 (8: 80% to less than 90%); in the assay with Echinochloa crus-galli (5g a.i./10a) it was 9 (9: 90% to less than 100%). For the same compound, the “Monochoria vaginalis herbicidal efficacy (growth inhibition level)” value in the assay on Monochoria vaginalis (1g a.i./10a) and with Monochoria vaginalis (5g a.i./10a) was 8 (8: 80% to less than 90%) throughout.
Consider `N#Cc1cnn(-c2nn3c(c2Br)CCCC3)c1NCC(Cl)=CCl` (mixture of isomers) [Compound 46], for which the “Scirpus juncoides herbicidal efficacy (growth inhibition level)” value with Scirpus juncoides (1g a.i./10a) was 7 (7: 70% to less than 80%); in the assay with Scirpus juncoides (5g a.i./10a) it was 8 (8: 80% to less than 90%). Also, the entries for the “Echinochloa crus-galli herbicidal efficacy (growth inhibition level)” value with Echinochloa crus-galli (1g a.i./10a) and in the assay on Echinochloa crus-galli (5g a.i./10a) were 7 (7: 70% to less than 80%) and 8 (8: 80% to less than 90%), respectively. In addition, the “Monochoria vaginalis herbicidal efficacy (growth inhibition level)” value is listed as 7 (7: 70% to less than 80%) in the assay with Monochoria vaginalis (1g a.i./10a) and 8 (8: 80% to less than 90%) in the assay with Monochoria vaginalis (5g a.i./10a).
For the compound `CC=CCNc1c(C#N)cnn1-c1nn2c(c1Br)CCCC2` (mixture of isomers) [Compound 47], the entries for the “Scirpus juncoides herbicidal efficacy (growth inhibition level)” value in the assay on Scirpus juncoides (1g a.i./10a) and in the assay with Scirpus juncoides (5g a.i./10a) were 7 (7: 70% to less than 80%) and 8 (8: 80% to less than 90%), respectively. The figures for the “Echinochloa crus-galli herbicidal efficacy (growth inhibition level)” value with Echinochloa crus-galli (1g a.i./10a) and in the assay with Echinochloa crus-galli (5g a.i./10a) were 9 (9: 90% to less than 100%) and 10 (10: 100%), respectively. Moreover, the entries for the “Monochoria vaginalis herbicidal efficacy (growth inhibition level)” value in the assay on Monochoria vaginalis (1g a.i./10a) and with Monochoria vaginalis (5g a.i./10a) were 8 (8: 80% to less than 90%) and 9 (9: 90% to less than 100%), respectively.
In the case of `CC=CCNc1c([N+](=O)[O-])cnn1-c1nn2c(c1Br)CCCC2` (mixture of isomers) [Compound 57], the “Scirpus juncoides herbicidal efficacy (growth inhibition level)” value in the assay on Scirpus juncoides (1g a.i./10a) is reported as 7 (7: 70% to less than 80%); in the assay with Scirpus juncoides (5g a.i./10a), 8 (8: 80% to less than 90%). The results for the “Echinochloa crus-galli herbicidal efficacy (growth inhibition level)” value with Echinochloa crus-galli (1g a.i./10a) and in the assay on Echinochloa crus-galli (5g a.i./10a) were 9 (9: 90% to less than 100%) and 10 (10: 100%), respectively. For the same compound, the entries for the “Monochoria vaginalis herbicidal efficacy (growth inhibition level)” value in the assay with Monochoria vaginalis (1g a.i./10a) and in the assay with Monochoria vaginalis (5g a.i./10a) were 8 (8: 80% to less than 90%) and 9 (9: 90% to less than 100%), respectively.
Regarding `C=CCCNc1c(C#N)cnn1-c1nn2c(c1Cl)CCCC2` [Compound 5], the “Scirpus juncoides herbicidal efficacy (growth inhibition level)” value in the assay with Scirpus juncoides (1g a.i./10a) is recorded as 7 (7: 70% to less than 80%); with Scirpus juncoides (5g a.i./10a) it was 8 (8: 80% to less than 90%). Moreover, the “Echinochloa crus-galli herbicidal efficacy (growth inhibition level)” value with Echinochloa crus-galli (1g a.i./10a) is given as 9 (9: 90% to less than 100%); with Echinochloa crus-galli (5g a.i./10a), 10 (10: 100%). Besides, the “Monochoria vaginalis herbicidal efficacy (growth inhibition level)” value in the assay with Monochoria vaginalis (1g a.i./10a) and with Monochoria vaginalis (5g a.i./10a) was 9 (9: 90% to less than 100%) each time.
On to `N#Cc1cnn(-c2nn3c(c2Cl)CCCC3)c1NCCC(F)=C(F)F` [Compound 6], for which the “Scirpus juncoides herbicidal efficacy (growth inhibition level)” value in the assay on Scirpus juncoides (1g a.i./10a) and in the assay on Scirpus juncoides (5g a.i./10a) was 8 (8: 80% to less than 90%) each time. Also, the “Echinochloa crus-galli herbicidal efficacy (growth inhibition level)” value with Echinochloa crus-galli (1g a.i./10a) and with Echinochloa crus-galli (5g a.i./10a) was 9 (9: 90% to less than 100%) throughout. For the same compound, the “Monochoria vaginalis herbicidal efficacy (growth inhibition level)” value in the assay on Monochoria vaginalis (1g a.i./10a) was 7 (7: 70% to less than 80%); in the assay with Monochoria vaginalis (5g a.i./10a), 8 (8: 80% to less than 90%).
For `N#Cc1cnn(-c2nn3c(c2Cl)CCCC3)c1NC/C=C\Cl` [Compound 7], the “Scirpus juncoides herbicidal efficacy (growth inhibition level)” value is on record as 7 (7: 70% to less than 80%) in the assay with Scirpus juncoides (1g a.i./10a) and 8 (8: 80% to less than 90%) in the assay with Scirpus juncoides (5g a.i./10a). In addition, the “Echinochloa crus-galli herbicidal efficacy (growth inhibition level)” value in the assay with Echinochloa crus-galli (1g a.i./10a) and in the assay with Echinochloa crus-galli (5g a.i./10a) was 9 (9: 90% to less than 100%) throughout. For the same compound, the “Monochoria vaginalis herbicidal efficacy (growth inhibition level)” value in the assay on Monochoria vaginalis (1g a.i./10a) and in the assay on Monochoria vaginalis (5g a.i./10a) was 9 (9: 90% to less than 100%) each time.
